Series [1] is described as follows: Stability in human liver microsomes. Type of series: in vitro ADME. To be noted: for half-life at 1 μM / CLint scaled at 1 μM: liver microsomes, human liver microsome 0.5 mg/mL, 1 μM compound, 37° C., pH 7.4; for CLint scaled at 1 μM: read-out: Intrinsic clearance; for degradation in human liver microsomes in vitro: in 60 minutes. As for the experimental part: (§1) Example C: Evaluation of the Stability of the Compounds of the Invention in Rat and Human Liver Microsomes
(§2) The compound of the invention and rat liver microsome or human liver microsome were placed in 0.1 M potassium phosphate buffer (containing 1.0 mM EDTA, pH=7.4) at 37° C., and the mixture was incubated at 37° C. The concentrations of the compound at different incubation time points were determined, and the half-life of the compound was calculated by curve plotted based on the relative contents of the compound and the corresponding incubation times by using GraphPad Prism 5.01. Then the intrinsic clearance was calculated.
(§3) The peak area ratio of sample to internal standard was analyzed by the LC/MS/MS system. The content of the compound at 0 min was 100%, and the relative contents of the compound at different time points were calculated. The half-life of the compound was calculated by curve plotted based on the relative contents of the compound and the corresponding incubation times, and the intrinsic clearance was calculated.
A general note: Liver microsomes are vesicles of endoplasmic reticulum, rich in cytochrome P450 enzymes.

Series [2] can be described thus: Pharmacokinetic evaluation after intravenous or gavage administration to dogs. The settings on record: for AUC(0-inf) / AUC(0-t) / Cmax / MRT inf / Tmax / clearance / half-life / Vd: beagle, dog, plasma; for Vd: read-out: Vss. Type of series: in vivo, Beagle dogs. As for the experimental part:
Example B: Pharmacokinetic Evaluation after Administering a Certain Amount of the Compounds of the Invention Intravenously or by Gavage to Dogs and Monkeys
In vivo pharmacokinetic assays in dogs and cynomolgus monkeys of the compounds disclosed herein were performed by the following steps.
Experiments were divided into two groups, one group was administered through intravenous drug delivery, and the other group was administered by gavage. The compounds disclosed herein were administered in form of a saline solution containing 5% DMSO, 5% Kolliphor HS 15, 2% (2% HCl) and 88% Saline, or the solution containing 10% DMSO, 10% Kolliphor HS 15 and 80% physiological saline. For intravenous administration, the animals were administered with a dose of 1 mg/kg, and 0.3 mL of vein blood was collected at the time points of 0.083, 0.25, 0.5, 1.0, 2.0, 4.0, 6.0, 8.0 and 24 h after drug administration (the time point of drug administration was set as 0 h), then each blood sample was processed to separate plasma by centrifugation at 3000 rpm or 4000 rpm for 10 minutes, and plasma was collected and stored at −20° C. or −70° C. until LC/MS/MS analysis described above. For gavage administration, the animals were administered with a dose of 2.5 mg/kg or 5 mg/kg, and 0.3 mL of vein blood was collected at the time points of 0.25, 0.5, 1.0, 2.0, 4.0, 6.0, 8.0 and 24 h after drug administration (the time point of drug administration was set as 0 h), then each blood sample was processed to separate plasma by centrifugation at 3000 rpm or 4000 rpm for 10 minutes, and plasma was collected and stored at −20° C. or −70° C. until LC/MS/MS analysis described above.
The above plasma was analyzed by the LC/MS/MS system.

Series [3] has as its target human 5-HT6 receptor (Homo sapiens (Human), UniProt P50406). The series can be described thus: Radioligand binding assay, human 5-HT6 receptor expressed in CHO cell. To be noted: 2 nM [3H]LSD. The method, then: Example A: The Binding Affinities of the Compounds of this Invention to Human 5-HT6 Receptor Expressed in CHO Cell were Evaluated by Radioligand Binding Assay as Follows
32 μg membrane proteins of CHO cell expressing human 5-HT6 receptor, 2 nM of radioactive marker [3H]LSD, a compound of the present invention having different test concentrations, 100 μM 5-HT (5-HT was used to eliminate nonspecific binding sites) and a buffer solution were mixed uniformly. Then the resulting mixture was incubated at 37° C. for 120 min, in which the buffer solution comprised 50 mM Tris-HCl (pH 7.4), 10 mM MgCl2, 0.5 mM EDTA, 10 μM pargyline and 20 mg/L protease inhibitor.
After incubation, the resulting mixture was filtered by a fiberglass filter (GF/B, Packard) in vacuo, and the filter membrane of the fiberglass filter was preimpregnated with 0.3% PEI before the filtering and washed with 50 mM of Tris-HCl for several times after the filtering. After the filter membrane was dried, and the radioactivity of filter membrane was determined by liquid scintillation counting by using a scintillometer (Topcount, Packard). The reference standard was 5-HT, and competitive inhibition curves were plotted based on several inhibition ratios and the corresponding compound concentrations. IC50 values were calculated by non-linear regression analysis using Hill equation curves, and the Ki values were calculated from IC50 by using the ChengPrusoff equation.

Series [4] in a line: Stability in rat liver microsomes. Type of series: in vitro ADME. To be noted: rat liver microsome 0.5 mg/mL, 1 μM compound, 37° C.; for half-life at 1 μM: pH 7.4; for CLint scaled at 1 μM: pH 7.4, read-out: Intrinsic clearance. The method, then: as §1, §2, §3
Where [5] appears, read: intravenous drug delivery group, dose 1 mg/kg.
Setting [6] is: po, gavage group, dose 2.5 mg/kg.

The structures appear in SMILES notation.

Sequence of human 5-HT6 receptor (P50406 whole entry): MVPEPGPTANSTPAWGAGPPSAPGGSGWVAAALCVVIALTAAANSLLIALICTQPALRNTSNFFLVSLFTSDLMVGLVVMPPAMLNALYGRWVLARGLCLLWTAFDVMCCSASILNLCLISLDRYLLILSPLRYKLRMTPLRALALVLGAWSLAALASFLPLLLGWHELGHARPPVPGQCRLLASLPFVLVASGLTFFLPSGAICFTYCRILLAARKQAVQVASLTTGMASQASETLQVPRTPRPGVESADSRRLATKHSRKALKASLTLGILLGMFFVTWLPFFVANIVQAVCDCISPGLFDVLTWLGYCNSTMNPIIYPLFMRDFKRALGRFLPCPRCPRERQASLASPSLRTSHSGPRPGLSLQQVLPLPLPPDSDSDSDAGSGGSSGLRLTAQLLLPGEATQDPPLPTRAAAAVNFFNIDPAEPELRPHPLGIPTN

By half-life is commonly meant the time in which the quantity being followed falls by half. Low readings indicate fast loss, high ones slow loss. For orientation: AUC(0-inf) means total exposure, with the tail of the curve extrapolated. A lower AUC(0-inf) goes with low exposure. In general, AUC(0-t) refers to exposure summed from dosing to a finite time, without extrapolation to infinity. High values mean more exposure, low ones less exposure. In general, Cmax refers to the peak of the concentration-time curve. In general, MRT inf refers to a mean duration of stay, worked out from the concentration-time curve. Usually Tmax stands for the time from dosing to the highest level. The term Ki denotes a measure of affinity in units of concentration, obtained from inhibition or displacement. Read a low Ki as a stronger hold on the target. Consider `O=S(=O)(c1ccccc1F)n1cc(C(F)F)c2c(N3CCNCC3)cccc21` [Example 2, 3-(difluoromethyl)-1-((2-fluorophenyl)sulfonyl)-4-(piperazin-1-yl)-1H-indole], for which, in series [1], the half-life at 1 μM turned out to be 2.22 h and the CLint scaled at 1 μM amounted to 0.783 L/h/kg. Further, in series [2] (setting [5]), the AUC(0-inf) came out at 0.926 µg·h/mL, the AUC(0-t) was determined as 0.781 µg·h/mL, the highest level (Cmax) was 0.106 µg/mL and the MRT inf is 8.73 h. In series [2] (setting [5]), the Tmax turned out to be 0.194 h, the clearance was found to be 1.11 L/h/kg, the half-life is 6.43 h and the Vd was 9.86 L/kg. In series [2] (setting [6]), this compound returned an AUC(0-inf) of 3.16 µg·h/mL, an AUC(0-t) of 2.4 µg·h/mL, a Cmax of 0.173 µg/mL and an MRT inf of 16.8 h. Besides, in series [2] (setting [6]), the Tmax worked out at 3.33 h and the half-life is 11.4 h. This compound had a F in series [2] (gavage group, dose 2.5 mg/kg) of 103.67%. Further, in series [3], the Ki came out at 0.46 nM. Besides, in series [4], the half-life at 1 μM came out at 0.583 h and the CLint scaled at 1 μM came to 4.26 L/h/kg.

For the compound `O=S(=O)(c1ccccc1Cl)n1cc(C(F)F)c2c(N3CCNCC3)cccc21` [Example 3, 1-((2-chlorophenyl)sulfonyl)-3-(difluoromethyl)-4-(piperazin-1-yl)-1H-indole], in series [1], the half-life at 1 μM came to 2.2 h and the CLint scaled at 1 μM stood at 0.79 L/h/kg. Also, in series [2] (setting [5]), the AUC(0-inf) was 2.34 µg·h/mL, the AUC(0-t) amounted to 2.66 µg·h/mL, the concentration peaked (Cmax) at 0.293 µg/mL and the MRT inf turned out to be 8.77 h. Besides, in series [2] (setting [5]), the time of peak concentration (Tmax) came out at 8.06 h, the clearance turned out to be 0.428 L/h/kg, the half-life was 6.26 h and the Vd came to 3.77 L/kg. In series [2] (setting [6]), this compound showed an AUC(0-inf) of 17.6 µg·h/mL, an area under the curve AUC(0-t) of 9.25 µg·h/mL, a maximum concentration (Cmax) of 0.975 µg/mL and an MRT inf of 17.9 h. For the same compound, in series [2] (setting [6]), the Tmax stood at 4.67 h and the half-life is 14.7 h. This compound had a F in series [2] (gavage group, dose 2.5 mg/kg) of 139%. This compound also displayed an inhibitory constant (Ki) in series [3] of 0.43 nM. Further, in series [4], the half-life at 1 μM came to 0.501 h and the CLint scaled at 1 μM turned out to be 4.96 L/h/kg.

Take `O=S(=O)(c1cccc(F)c1)n1cc(C(F)F)c2c(N3CCNCC3)cccc21` [Example 5, 3-(difluoromethyl)-1-((3-fluorophenyl)sulfonyl)-4-(piperazin-1-yl)-1H-indole]: in series [1], the “degradation in human liver microsomes in vitro” value is listed as “almost had no degradation”, the half-life at 1 μM stood at 3.62 h and the CLint scaled at 1 μM is 0.479 L/h/kg. For the same compound, in series [2] (setting [5]), the total exposure AUC(0-inf) came to 1.19 µg·h/mL, the AUC(0-t) is 1.1 µg·h/mL, the Cmax turned out to be 0.125 µg/mL and the MRT inf was 8.77 h. In series [2] (setting [5]), the Tmax was 0.389 h, the clearance amounted to 0.84 L/h/kg, the half-life is 6.49 h and the Vd worked out at 7.36 L/kg. Besides, in series [2] (po, gavage group, dose 5 mg/kg), the AUC(0-inf) is 8.35 µg·h/mL, the AUC(0-t) was found to be 5.68 µg·h/mL, the highest level (Cmax) was 0.347 µg/mL and the MRT inf came out at 15 h. In series [2] (po, gavage group, dose 5 mg/kg), the Tmax stood at 6 h and the half-life was 10.1 h. In series [2] (gavage group, dose 5 mg/kg), the F turned out to be 103.21%. The compound further gave a Ki in series [3] of 0.52 nM. Besides, in series [4], the half-life at 1 μM was 0.725 h and the CLint scaled at 1 μM amounted to 3.43 L/h/kg.

As to `O=S(=O)(c1cccc(Cl)c1)n1cc(C(F)F)c2c(N3CCNCC3)cccc21` [Example 6, 1-((3-chlorophenyl)sulfonyl)-3-(difluoromethyl)-4-(piperazin-1-yl)-1H-indole], the “degradation in human liver microsomes in vitro” value in series [1] is reported as “almost had no degradation”. The compound further came in with an inhibitory constant (Ki) in series [3] of 0.68 nM. In addition, in series [4], the half-life at 1 μM stood at 0.591 h and the CLint scaled at 1 μM was 4.2 L/h/kg.

The values are drawn from patent publication US9974785B2, “Aromatic heterocyclic derivatives and pharmaceutical applications thereof” (SUNSHINE LAKE PHARMA CO., LTD., priority 2014, dated 2018).
